# Columns and labels:
# Assay type in all cases: biochemical
# MMP-13 [1] = biological target: T1, MMP-13 (Homo sapiens, UniProt P45452)
# MMP-2 = biological target: T2, MMP-2 (Homo sapiens, UniProt P08253); assay: MMP-2 enzyme assay with fTHP substrates; details: 200 nM
# T2 sequence (P08253 110-660): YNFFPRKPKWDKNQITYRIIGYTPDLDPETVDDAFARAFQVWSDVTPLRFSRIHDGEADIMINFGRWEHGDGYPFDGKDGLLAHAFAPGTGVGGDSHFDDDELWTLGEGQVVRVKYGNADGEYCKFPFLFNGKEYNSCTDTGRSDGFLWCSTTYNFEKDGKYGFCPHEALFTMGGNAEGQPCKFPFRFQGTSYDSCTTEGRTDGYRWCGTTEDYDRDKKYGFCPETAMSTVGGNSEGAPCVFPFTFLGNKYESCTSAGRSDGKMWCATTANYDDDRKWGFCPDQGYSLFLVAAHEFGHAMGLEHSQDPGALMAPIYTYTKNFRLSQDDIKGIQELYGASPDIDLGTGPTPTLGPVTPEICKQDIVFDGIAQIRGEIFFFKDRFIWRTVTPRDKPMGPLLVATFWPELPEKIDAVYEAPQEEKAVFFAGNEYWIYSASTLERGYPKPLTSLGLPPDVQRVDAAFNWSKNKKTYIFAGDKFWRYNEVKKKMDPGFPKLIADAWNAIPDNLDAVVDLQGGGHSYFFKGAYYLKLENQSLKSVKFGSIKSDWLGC
# MMP-8 = MMP-8 (Homo sapiens, UniProt P22894); assay: MMP-8 enzyme assay with fTHP substrates; details: 200 nM
# MMP-13 [2] = biological target: T1, MMP-13; assay: In vitro type II collagen cleavage assay; details: 20 μM; intact type II collagen remaining after 24 h at 37 °C
# Chain of MMP-8 (P22894 101-467, species assumed): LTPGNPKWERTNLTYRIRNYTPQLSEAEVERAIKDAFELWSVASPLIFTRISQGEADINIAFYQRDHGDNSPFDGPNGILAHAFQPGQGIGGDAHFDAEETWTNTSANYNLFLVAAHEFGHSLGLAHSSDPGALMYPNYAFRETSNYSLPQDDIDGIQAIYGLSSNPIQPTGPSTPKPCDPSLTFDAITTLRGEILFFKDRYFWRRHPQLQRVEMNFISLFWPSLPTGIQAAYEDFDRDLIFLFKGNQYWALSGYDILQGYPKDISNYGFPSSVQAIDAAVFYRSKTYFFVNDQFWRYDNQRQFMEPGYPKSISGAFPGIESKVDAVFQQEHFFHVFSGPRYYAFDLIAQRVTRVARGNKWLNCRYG
smiles,measurement,setting,value
CNC(=O)[C@H](NC(=O)c1ccc(-c2ccc(CSc3nc4c(c(=O)[nH]3)CCC4)cc2)o1)C(C)C [(R)-17a],loss of inhibition activity vs MMP-13 compared to the (S)-enantiomer,MMP-13 [1]; D-valine analogue compared to L-valine analogue,ca. 40 fold
CNC(=O)[C@@H](NC(=O)c1ccc(-c2ccc(CSc3nc4c(c(=O)[nH]3)CCC4)cc2)o1)C(C)C [(S)-17a],improvement of MMP-13 inhibition potency compared to 5,MMP-13 [1]; compared to starting inhibitor 5,~300 fold
same,inhibition of MMP-2 in single-dose assay,MMP-2,moderately active
same,inhibition of MMP-8 in single-dose assay,MMP-8,moderately active
Cc1ccc(CSc2nc(O)c3c(n2)CCC3)cc1 [Compound 5],inhibition of collagenolysis (type II collagen cleavage by MMP-13),MMP-13 [2],nearly inactive
